From the kinase profiling compilation of Christmann-Franck et al. (2016)

Assays:
ERBB4 (human) = ERBB4 (human) (UniProt Q15303); assay: radiometric filter-binding kinase assay
CSK (human) = CSK (human) (UniProt P41240); assay: radiometric filter-binding kinase assay
MYLK (human) = MYLK (human) (UniProt Q15746); assay: radiometric filter-binding kinase assay
IRAK4 (human) = IRAK4 (human) (UniProt Q9NWZ3); assay: radiometric filter-binding kinase assay
MAP3K11 (human) = MAP3K11 (human) (UniProt Q16584); assay: radiometric filter-binding kinase assay
MAPKAPK5 (human) = MAPKAPK5 (human) (UniProt Q8IW41); assay: radiometric filter-binding kinase assay
MAPKAPK3 (human) = MAPKAPK3 (human) (UniProt Q16644); assay: radiometric filter-binding kinase assay
IGF1R (human) = IGF1R (human) (UniProt P08069); assay: radiometric filter-binding kinase assay
AURKA (human) = AURKA (human) (UniProt O14965); assay: radiometric filter-binding kinase assay
SRPK1 (human) = SRPK1 (human) (UniProt Q96SB4); assay: radiometric filter-binding kinase assay
EPHA2 (human) = EPHA2 (human) (UniProt P29317); assay: radiometric filter-binding kinase assay
PIM2 (human) = PIM2 (human) (UniProt Q9P1W9); assay: radiometric filter-binding kinase assay
NEK6 (human) = NEK6 (human) (UniProt Q9HC98); assay: radiometric filter-binding kinase assay
[1] = test system: RPS6KB1 (human), P23443 [T412E]; assay: radiometric filter-binding kinase assay
PIK3CG (human) = PIK3CG (human) (UniProt P48736); assay: ADP detection assay-Luminescence
PI4KB (human) = PI4KB (human) (UniProt Q9UBF8); assay: ADP detection assay-Luminescence
SPHK2 (human) = SPHK2 (human) (UniProt Q9NRA0); assay: ADP detection assay-Luminescence
PIK3CA PIK3R1 (human) = PIK3CA PIK3R1 (human) (UniProt P27986+P42336); assay: ADP detection assay-Luminescence
CHKB (human) = CHKB (human) (UniProt Q9Y259); assay: ADP detection assay-Luminescence
PI4KA (human) = PI4KA (human) (UniProt P42356); assay: ADP detection assay-Luminescence
PIK3C3 (human) = PIK3C3 (human) (UniProt Q8NEB9); assay: ADP detection assay-Luminescence
SPHK1 (human) = SPHK1 (human) (UniProt Q9NYA1); assay: ADP detection assay-Luminescence
DGKB (human) = DGKB (human) (UniProt Q9Y6T7); assay: ADP detection assay-Luminescence
DGKZ (human) = DGKZ (human) (UniProt Q13574); assay: ADP detection assay-Luminescence
DGKG (human) = DGKG (human) (UniProt P49619); assay: ADP detection assay-Luminescence
PIK3CD PIK3R1 (human) = PIK3CD PIK3R1 (human) (UniProt O00329+P27986); assay: ADP detection assay-Luminescence
CHKA (human) = CHKA (human) (UniProt P35790); assay: ADP detection assay-Luminescence
PIK3CB PIK3R1 (human) = PIK3CB PIK3R1 (human) (UniProt P27986+P42338); assay: ADP detection assay-Luminescence
PIP4K2A (human) = PIP4K2A (human) (UniProt P48426); assay: ADP detection assay-Luminescence
PIP4K2A (human), sequence (P48426 whole entry, looked up): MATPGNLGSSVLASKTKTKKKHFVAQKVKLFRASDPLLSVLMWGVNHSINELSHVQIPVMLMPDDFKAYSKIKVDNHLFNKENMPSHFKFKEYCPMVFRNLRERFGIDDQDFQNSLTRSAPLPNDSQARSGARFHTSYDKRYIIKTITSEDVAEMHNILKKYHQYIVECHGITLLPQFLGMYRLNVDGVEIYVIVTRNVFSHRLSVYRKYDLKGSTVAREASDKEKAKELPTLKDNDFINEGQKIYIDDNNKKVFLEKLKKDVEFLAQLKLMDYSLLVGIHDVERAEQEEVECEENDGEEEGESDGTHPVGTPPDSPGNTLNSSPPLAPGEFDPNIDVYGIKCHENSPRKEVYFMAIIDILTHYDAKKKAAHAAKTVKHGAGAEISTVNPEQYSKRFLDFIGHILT

PI4KA (human), sequence (P42356 whole entry, looked up): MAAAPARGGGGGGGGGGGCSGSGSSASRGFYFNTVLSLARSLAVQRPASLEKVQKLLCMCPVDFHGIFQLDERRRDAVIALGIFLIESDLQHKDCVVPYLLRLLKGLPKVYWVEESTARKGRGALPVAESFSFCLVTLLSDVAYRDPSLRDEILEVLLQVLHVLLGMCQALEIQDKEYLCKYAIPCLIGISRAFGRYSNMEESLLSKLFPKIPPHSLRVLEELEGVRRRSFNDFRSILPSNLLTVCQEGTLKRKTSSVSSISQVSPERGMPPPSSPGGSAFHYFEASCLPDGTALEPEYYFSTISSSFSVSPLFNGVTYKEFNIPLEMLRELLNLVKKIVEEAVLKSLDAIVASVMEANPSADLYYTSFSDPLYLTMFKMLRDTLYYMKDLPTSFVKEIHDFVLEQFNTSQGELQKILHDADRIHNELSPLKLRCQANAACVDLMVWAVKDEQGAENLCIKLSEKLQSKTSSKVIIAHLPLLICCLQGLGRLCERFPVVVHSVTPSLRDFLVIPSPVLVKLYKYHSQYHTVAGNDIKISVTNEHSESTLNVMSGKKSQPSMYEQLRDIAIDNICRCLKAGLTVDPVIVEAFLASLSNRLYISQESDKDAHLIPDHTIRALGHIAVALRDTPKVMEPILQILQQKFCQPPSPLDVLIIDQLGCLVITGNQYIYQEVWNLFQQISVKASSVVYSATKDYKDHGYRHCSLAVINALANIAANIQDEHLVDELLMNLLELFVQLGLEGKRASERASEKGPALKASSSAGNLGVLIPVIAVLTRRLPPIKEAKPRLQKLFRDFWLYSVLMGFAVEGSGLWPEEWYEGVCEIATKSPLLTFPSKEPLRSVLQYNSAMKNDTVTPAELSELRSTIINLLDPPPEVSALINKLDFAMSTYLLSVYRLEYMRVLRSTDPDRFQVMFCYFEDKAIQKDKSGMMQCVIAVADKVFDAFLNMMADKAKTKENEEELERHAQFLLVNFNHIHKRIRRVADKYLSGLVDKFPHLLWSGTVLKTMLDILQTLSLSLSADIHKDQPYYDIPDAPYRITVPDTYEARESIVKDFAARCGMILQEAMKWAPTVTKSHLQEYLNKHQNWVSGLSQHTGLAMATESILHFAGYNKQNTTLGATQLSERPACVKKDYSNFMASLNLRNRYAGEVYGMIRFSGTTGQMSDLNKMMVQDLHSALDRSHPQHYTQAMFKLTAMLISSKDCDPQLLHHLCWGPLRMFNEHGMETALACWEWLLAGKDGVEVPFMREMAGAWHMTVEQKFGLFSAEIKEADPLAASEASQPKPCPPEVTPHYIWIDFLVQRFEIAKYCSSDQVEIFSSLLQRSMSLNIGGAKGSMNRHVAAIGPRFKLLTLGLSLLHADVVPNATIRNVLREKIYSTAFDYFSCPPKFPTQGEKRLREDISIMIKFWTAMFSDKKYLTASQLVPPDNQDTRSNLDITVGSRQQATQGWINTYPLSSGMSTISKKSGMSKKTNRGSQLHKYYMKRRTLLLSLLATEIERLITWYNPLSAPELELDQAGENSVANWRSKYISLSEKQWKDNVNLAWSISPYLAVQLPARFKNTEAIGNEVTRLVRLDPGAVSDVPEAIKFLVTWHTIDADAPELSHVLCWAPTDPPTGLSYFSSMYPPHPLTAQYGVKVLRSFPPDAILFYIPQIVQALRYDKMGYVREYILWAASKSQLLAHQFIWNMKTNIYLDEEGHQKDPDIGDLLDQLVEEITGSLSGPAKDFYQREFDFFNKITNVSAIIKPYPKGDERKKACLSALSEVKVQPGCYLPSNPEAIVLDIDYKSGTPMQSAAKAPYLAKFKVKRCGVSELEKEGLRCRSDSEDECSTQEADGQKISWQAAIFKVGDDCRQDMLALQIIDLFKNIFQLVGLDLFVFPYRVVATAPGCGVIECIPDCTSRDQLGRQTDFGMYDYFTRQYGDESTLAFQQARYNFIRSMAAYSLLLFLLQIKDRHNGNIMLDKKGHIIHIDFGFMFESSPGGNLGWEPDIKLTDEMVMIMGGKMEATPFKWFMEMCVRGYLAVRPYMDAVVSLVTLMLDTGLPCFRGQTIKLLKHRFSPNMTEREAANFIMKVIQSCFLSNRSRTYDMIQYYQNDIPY
PIK3CD PIK3R1 (human), sequence (O00329 whole entry, looked up): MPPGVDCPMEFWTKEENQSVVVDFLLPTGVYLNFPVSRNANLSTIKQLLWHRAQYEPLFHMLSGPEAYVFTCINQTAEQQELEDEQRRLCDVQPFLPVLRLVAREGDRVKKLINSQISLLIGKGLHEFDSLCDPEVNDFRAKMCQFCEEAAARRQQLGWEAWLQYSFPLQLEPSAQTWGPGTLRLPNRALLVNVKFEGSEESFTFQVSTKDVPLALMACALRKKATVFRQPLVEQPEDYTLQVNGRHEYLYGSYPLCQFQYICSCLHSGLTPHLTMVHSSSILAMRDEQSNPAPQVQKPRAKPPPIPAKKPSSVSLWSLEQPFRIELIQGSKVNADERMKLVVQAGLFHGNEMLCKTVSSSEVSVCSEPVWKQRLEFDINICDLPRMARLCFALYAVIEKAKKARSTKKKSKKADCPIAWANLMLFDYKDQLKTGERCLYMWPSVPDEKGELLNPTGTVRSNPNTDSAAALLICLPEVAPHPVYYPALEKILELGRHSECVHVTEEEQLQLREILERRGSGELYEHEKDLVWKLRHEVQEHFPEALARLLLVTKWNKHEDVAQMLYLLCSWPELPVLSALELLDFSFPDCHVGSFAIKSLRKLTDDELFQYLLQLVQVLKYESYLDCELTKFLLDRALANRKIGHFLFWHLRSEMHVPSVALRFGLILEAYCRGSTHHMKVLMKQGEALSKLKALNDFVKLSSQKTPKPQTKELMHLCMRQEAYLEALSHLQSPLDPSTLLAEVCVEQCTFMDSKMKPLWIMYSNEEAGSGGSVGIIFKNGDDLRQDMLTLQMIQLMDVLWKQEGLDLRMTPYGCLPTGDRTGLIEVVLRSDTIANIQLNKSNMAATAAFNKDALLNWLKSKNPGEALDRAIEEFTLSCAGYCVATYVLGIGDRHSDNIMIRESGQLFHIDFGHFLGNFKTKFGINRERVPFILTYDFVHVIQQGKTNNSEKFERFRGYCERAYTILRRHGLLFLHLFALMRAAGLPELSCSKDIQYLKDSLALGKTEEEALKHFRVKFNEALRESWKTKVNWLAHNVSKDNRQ
PIK3CD PIK3R1 (human), sequence (P27986 whole entry, looked up): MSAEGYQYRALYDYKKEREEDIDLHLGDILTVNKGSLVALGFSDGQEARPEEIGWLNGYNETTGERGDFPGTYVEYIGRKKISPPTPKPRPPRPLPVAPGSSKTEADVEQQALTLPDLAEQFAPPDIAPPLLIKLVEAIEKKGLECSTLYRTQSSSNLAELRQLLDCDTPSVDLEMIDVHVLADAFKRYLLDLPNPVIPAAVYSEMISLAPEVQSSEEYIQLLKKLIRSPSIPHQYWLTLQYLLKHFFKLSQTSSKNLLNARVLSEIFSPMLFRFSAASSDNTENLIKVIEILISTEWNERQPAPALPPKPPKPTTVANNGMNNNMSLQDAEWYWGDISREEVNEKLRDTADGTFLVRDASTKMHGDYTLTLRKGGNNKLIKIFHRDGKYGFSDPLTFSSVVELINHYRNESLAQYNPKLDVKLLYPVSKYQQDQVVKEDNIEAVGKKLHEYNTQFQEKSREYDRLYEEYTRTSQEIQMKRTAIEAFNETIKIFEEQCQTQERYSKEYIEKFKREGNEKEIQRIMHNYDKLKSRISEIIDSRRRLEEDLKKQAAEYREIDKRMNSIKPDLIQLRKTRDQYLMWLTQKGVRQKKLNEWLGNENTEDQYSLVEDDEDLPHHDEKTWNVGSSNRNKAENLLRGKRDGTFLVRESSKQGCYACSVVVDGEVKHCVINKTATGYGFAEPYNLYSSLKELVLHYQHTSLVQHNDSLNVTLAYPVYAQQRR
NEK6 (human), sequence (Q9HC98 whole entry, looked up): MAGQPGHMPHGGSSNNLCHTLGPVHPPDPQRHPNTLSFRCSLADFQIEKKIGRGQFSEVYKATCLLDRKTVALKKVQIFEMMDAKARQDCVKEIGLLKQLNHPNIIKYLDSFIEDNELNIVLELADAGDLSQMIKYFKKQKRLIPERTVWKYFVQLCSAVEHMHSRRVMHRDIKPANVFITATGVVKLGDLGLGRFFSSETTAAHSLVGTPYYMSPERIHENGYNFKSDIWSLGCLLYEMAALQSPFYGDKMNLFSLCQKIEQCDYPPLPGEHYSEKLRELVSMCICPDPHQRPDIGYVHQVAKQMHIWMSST
IRAK4 (human), sequence (Q9NWZ3 whole entry, looked up): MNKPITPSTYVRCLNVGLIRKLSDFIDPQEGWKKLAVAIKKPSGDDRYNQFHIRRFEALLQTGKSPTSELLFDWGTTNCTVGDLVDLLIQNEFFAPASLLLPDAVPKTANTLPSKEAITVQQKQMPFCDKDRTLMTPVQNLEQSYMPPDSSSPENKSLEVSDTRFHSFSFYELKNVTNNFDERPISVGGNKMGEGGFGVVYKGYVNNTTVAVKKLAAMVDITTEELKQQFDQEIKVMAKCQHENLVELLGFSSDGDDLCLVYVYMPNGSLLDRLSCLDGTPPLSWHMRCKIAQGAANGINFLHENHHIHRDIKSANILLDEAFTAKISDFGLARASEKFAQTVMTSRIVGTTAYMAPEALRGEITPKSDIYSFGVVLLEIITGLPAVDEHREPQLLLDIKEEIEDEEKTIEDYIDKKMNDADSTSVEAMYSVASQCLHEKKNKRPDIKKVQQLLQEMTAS

CNc1nc(-c2ccc3c(N)n[nH]c3c2)cc(N2C[C@@H](C(=O)NC3CCCCC3)CC[C@H]2C)n1
residual activity (ERBB4 (human); compound 0.01 µM): 106%
residual activity (ERBB4 (human); compound 0.1 µM): 107%
residual activity (ERBB4 (human); compound 1.0 µM): 106%
residual activity (CSK (human); compound 0.01 µM): 103%
residual activity (CSK (human); compound 0.1 µM): 104%
residual activity (CSK (human); compound 1.0 µM): 100%
residual activity (MYLK (human); compound 0.01 µM): 116%
residual activity (MYLK (human); compound 0.1 µM): 113%
residual activity (MYLK (human); compound 1.0 µM): 92%
residual activity (IRAK4 (human); compound 0.01 µM): 109%
residual activity (IRAK4 (human); compound 0.1 µM): 112%
residual activity (IRAK4 (human); compound 1.0 µM): 106%
residual activity (MAP3K11 (human); compound 0.01 µM): 100%
residual activity (MAP3K11 (human); compound 0.1 µM): 110%
residual activity (MAP3K11 (human); compound 1.0 µM): 87%
residual activity (MAPKAPK5 (human); compound 0.01 µM): 81%
residual activity (MAPKAPK5 (human); compound 0.1 µM): 92%
residual activity (MAPKAPK5 (human); compound 1.0 µM): 76%
residual activity (MAPKAPK3 (human); compound 0.01 µM): 112%
residual activity (MAPKAPK3 (human); compound 0.1 µM): 112%
residual activity (MAPKAPK3 (human); compound 1.0 µM): 100%
residual activity (IGF1R (human); compound 0.01 µM): 126%
residual activity (IGF1R (human); compound 0.1 µM): 115%
residual activity (IGF1R (human); compound 1.0 µM): 107%
residual activity (AURKA (human); compound 0.01 µM): 112%
residual activity (AURKA (human); compound 0.1 µM): 115%
residual activity (AURKA (human); compound 1.0 µM): 92%
residual activity (SRPK1 (human); compound 0.01 µM): 106%
residual activity (SRPK1 (human); compound 0.1 µM): 120%
residual activity (SRPK1 (human); compound 1.0 µM): 106%
residual activity (EPHA2 (human); compound 0.01 µM): 110%
residual activity (EPHA2 (human); compound 0.1 µM): 118%
residual activity (EPHA2 (human); compound 1.0 µM): 114%
residual activity (PIM2 (human); compound 0.01 µM): 97%
residual activity (PIM2 (human); compound 0.1 µM): 100%
residual activity (PIM2 (human); compound 1.0 µM): 97%
residual activity (NEK6 (human); compound 0.01 µM): 98%
residual activity (NEK6 (human); compound 0.1 µM): 101%
residual activity (NEK6 (human); compound 1.0 µM): 97%
residual activity ([1]; compound 0.01 µM): 111%
residual activity ([1]; compound 0.1 µM): 106%
residual activity ([1]; compound 1.0 µM): 100%
residual activity (PIK3CG (human); compound 0.1 µM): 98%
residual activity (PIK3CG (human); compound 1.0 µM): 83%
residual activity (PIK3CG (human); compound 10.0 µM): 70%
residual activity (PI4KB (human); compound 0.1 µM): 99%
residual activity (PI4KB (human); compound 1.0 µM): 89%
residual activity (PI4KB (human); compound 10.0 µM): 97%
residual activity (SPHK2 (human); compound 0.1 µM): 103%
residual activity (SPHK2 (human); compound 1.0 µM): 100%
residual activity (SPHK2 (human); compound 10.0 µM): 91%
residual activity (PIK3CA PIK3R1 (human); compound 0.1 µM): 106%
residual activity (PIK3CA PIK3R1 (human); compound 1.0 µM): 105%
residual activity (PIK3CA PIK3R1 (human); compound 10.0 µM): 104%
residual activity (CHKB (human); compound 0.1 µM): 113%
residual activity (CHKB (human); compound 1.0 µM): 95%
residual activity (CHKB (human); compound 10.0 µM): 87%
residual activity (PI4KA (human); compound 0.1 µM): 100%
residual activity (PI4KA (human); compound 1.0 µM): 94%
residual activity (PI4KA (human); compound 10.0 µM): 103%
residual activity (PIK3C3 (human); compound 0.1 µM): 96%
residual activity (PIK3C3 (human); compound 1.0 µM): 102%
residual activity (PIK3C3 (human); compound 10.0 µM): 89%
residual activity (SPHK1 (human); compound 0.1 µM): 106%
residual activity (SPHK1 (human); compound 1.0 µM): 102%
residual activity (SPHK1 (human); compound 10.0 µM): 94%
residual activity (DGKB (human); compound 0.1 µM): 99%
residual activity (DGKB (human); compound 1.0 µM): 100%
residual activity (DGKB (human); compound 10.0 µM): 93%
residual activity (DGKZ (human); compound 0.1 µM): 110%
residual activity (DGKZ (human); compound 1.0 µM): 86%
residual activity (DGKZ (human); compound 10.0 µM): 101%
residual activity (DGKG (human); compound 0.1 µM): 99%
residual activity (DGKG (human); compound 1.0 µM): 100%
residual activity (DGKG (human); compound 10.0 µM): 101%
residual activity (PIK3CD PIK3R1 (human); compound 0.1 µM): 119%
residual activity (PIK3CD PIK3R1 (human); compound 1.0 µM): 104%
residual activity (PIK3CD PIK3R1 (human); compound 10.0 µM): 73%
residual activity (CHKA (human); compound 0.1 µM): 102%
residual activity (CHKA (human); compound 1.0 µM): 94%
residual activity (CHKA (human); compound 10.0 µM): 101%
residual activity (PIK3CB PIK3R1 (human); compound 0.1 µM): 102%
residual activity (PIK3CB PIK3R1 (human); compound 1.0 µM): 108%
residual activity (PIK3CB PIK3R1 (human); compound 10.0 µM): 97%
residual activity (PIP4K2A (human); compound 0.1 µM): 102%
residual activity (PIP4K2A (human); compound 1.0 µM): 97%
residual activity (PIP4K2A (human); compound 10.0 µM): 86%
